# From PubChem BioAssay (NCI)
#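 Compound exposure: 48 hours, 5 concentrations, 96-well plates. At the GI50, growth is halved. TGI: total growth inhibition.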
# Key:
# Test in all cases: DTP human tumour cell line panel, 48 h
# 786-0 renal = tested on: 786-0 renal
# A498 renal = tested on: A498 renal
# A549 NSCLC = tested on: A549 NSCLC
# ACHN renal = tested on: ACHN renal
# BT-549 breast = tested on: BT-549 breast
# CAKI-1 renal = tested on: CAKI-1 renal
# CCRF-CEM leukemia = tested on: CCRF-CEM leukemia
# COLO 205 colon = tested on: COLO 205 colon
# DU-145 prostate = tested on: DU-145 prostate
# EKVX NSCLC = tested on: EKVX NSCLC
# HCC-2998 colon = tested on: HCC-2998 colon
# HCT-116 colon = tested on: HCT-116 colon
# HCT-15 colon = tested on: HCT-15 colon
# HL-60(TB) leukemia = tested on: HL-60(TB) leukemia
# HOP-62 NSCLC = tested on: HOP-62 NSCLC
# HOP-92 NSCLC = tested on: HOP-92 NSCLC
# HS 578T breast = tested on: HS 578T breast
# HT29 colon = tested on: HT29 colon
# IGROV1 ovarian = tested on: IGROV1 ovarian
# K-562 leukemia = tested on: K-562 leukemia
# KM12 colon = tested on: KM12 colon
# LOX IMVI melanoma = tested on: LOX IMVI melanoma
# M14 melanoma = tested on: M14 melanoma
# MALME-3M melanoma = tested on: MALME-3M melanoma
# MCF7 breast = tested on: MCF7 breast
# MDA-MB-231 breast = tested on: MDA-MB-231 breast
# MDA-MB-435 = tested on: MDA-MB-435
# MOLT-4 leukemia = tested on: MOLT-4 leukemia
# NCI-H226 lung = tested on: NCI-H226 lung
# NCI-H23 lung = tested on: NCI-H23 lung
# NCI-H460 lung = tested on: NCI-H460 lung
# NCI-H522 lung = tested on: NCI-H522 lung
# NCI/ADR-RES ovarian = tested on: NCI/ADR-RES ovarian
# OVCAR-3 ovarian = tested on: OVCAR-3 ovarian
# OVCAR-4 ovarian = tested on: OVCAR-4 ovarian
# OVCAR-5 ovarian = tested on: OVCAR-5 ovarian
# OVCAR-8 ovarian = tested on: OVCAR-8 ovarian
# PC-3 prostate = tested on: PC-3 prostate
# RPMI-8226 leukemia = tested on: RPMI-8226 leukemia
# RXF 393 renal = tested on: RXF 393 renal
# SF-268 CNS = tested on: SF-268 CNS
# SF-295 CNS = tested on: SF-295 CNS
# SF-539 CNS = tested on: SF-539 CNS
# SK-MEL-2 melanoma = tested on: SK-MEL-2 melanoma
# SK-MEL-28 melanoma = tested on: SK-MEL-28 melanoma
# SK-MEL-5 melanoma = tested on: SK-MEL-5 melanoma
# SK-OV-3 ovarian = tested on: SK-OV-3 ovarian
# SN12C renal = tested on: SN12C renal
# SNB-19 CNS = tested on: SNB-19 CNS
# SNB-75 CNS = tested on: SNB-75 CNS
# SR leukemia = tested on: SR leukemia
# SW-620 colon = tested on: SW-620 colon
# T-47D breast = tested on: T-47D breast
# TK-10 renal = tested on: TK-10 renal
# U251 CNS = tested on: U251 CNS
# UACC-257 melanoma = tested on: UACC-257 melanoma
# UACC-62 melanoma = tested on: UACC-62 melanoma
# UO-31 renal = tested on: UO-31 renal
structure (smiles),measurement,setting,value
CN[C@@H](C)C(=O)N[C@H]1CCS[C@H]2CC(C)(C)[C@@H](C(=O)N[C@H]3c4ccccc4C[C@H]3OCC#CC#CCO[C@@H]3Cc4ccccc4[C@@H]3NC(=O)[C@H]3N4C(=O)[C@@H](NC(=O)[C@H](C)NC)CCS[C@H]4CC3(C)C)N2C1=O,GI50,786-0 renal,> 50 µM
same,TGI,786-0 renal,> 50 µM
same,GI50,A498 renal,> 50 µM
same,TGI,A498 renal,> 50 µM
same,GI50,A549 NSCLC,> 50 µM
same,TGI,A549 NSCLC,> 50 µM
same,GI50,ACHN renal,> 50 µM
same,TGI,ACHN renal,> 50 µM
same,GI50,BT-549 breast,0.00762 µM
same,TGI,BT-549 breast,6.38 µM
same,GI50,CAKI-1 renal,> 50 µM
same,TGI,CAKI-1 renal,> 50 µM
same,GI50,CCRF-CEM leukemia,0.0966 µM
same,TGI,CCRF-CEM leukemia,12.3 µM
same,GI50,COLO 205 colon,25.2 µM
same,TGI,COLO 205 colon,> 50 µM
same,GI50,DU-145 prostate,20.6 µM
same,TGI,DU-145 prostate,> 50 µM
same,GI50,EKVX NSCLC,> 38.9 µM
same,TGI,EKVX NSCLC,> 50 µM
same,GI50,HCC-2998 colon,19.5 µM
same,TGI,HCC-2998 colon,> 50 µM
same,GI50,HCT-116 colon,> 28.8 µM
same,TGI,HCT-116 colon,> 50 µM
same,GI50,HCT-15 colon,> 50 µM
same,TGI,HCT-15 colon,> 50 µM
same,GI50,HL-60(TB) leukemia,0.0759 µM
same,TGI,HL-60(TB) leukemia,2.33 µM
same,GI50,HOP-62 NSCLC,3.72 µM
same,TGI,HOP-62 NSCLC,> 50 µM
same,GI50,HOP-92 NSCLC,2.99 µM
same,TGI,HOP-92 NSCLC,14.3 µM
same,GI50,HS 578T breast,15.5 µM
same,TGI,HS 578T breast,> 50 µM
same,GI50,HT29 colon,20.2 µM
same,TGI,HT29 colon,> 50 µM
same,GI50,IGROV1 ovarian,32.1 µM
same,TGI,IGROV1 ovarian,> 50 µM
same,GI50,K-562 leukemia,12.9 µM
same,TGI,K-562 leukemia,> 33.4 µM
same,GI50,KM12 colon,30.5 µM
same,TGI,KM12 colon,> 50 µM
same,GI50,LOX IMVI melanoma,13.8 µM
same,TGI,LOX IMVI melanoma,> 50 µM
same,GI50,M14 melanoma,> 50 µM
same,TGI,M14 melanoma,> 50 µM
same,GI50,MALME-3M melanoma,0.00951 µM
same,TGI,MALME-3M melanoma,0.115 µM
same,GI50,MCF7 breast,5.87 µM
same,TGI,MCF7 breast,17.8 µM
same,GI50,MDA-MB-231 breast,< 0.005 µM
same,TGI,MDA-MB-231 breast,0.0239 µM
same,GI50,MDA-MB-435,> 23 µM
same,TGI,MDA-MB-435,> 50 µM
same,GI50,MOLT-4 leukemia,9.86 µM
same,TGI,MOLT-4 leukemia,22.4 µM
same,GI50,NCI-H226 lung,> 50 µM
same,TGI,NCI-H226 lung,> 50 µM
same,GI50,NCI-H23 lung,> 32 µM
same,TGI,NCI-H23 lung,> 50 µM
same,GI50,NCI-H460 lung,24.6 µM
same,TGI,NCI-H460 lung,> 50 µM
same,GI50,NCI-H522 lung,7.38 µM
same,TGI,NCI-H522 lung,32 µM
same,GI50,NCI/ADR-RES ovarian,> 50 µM
same,TGI,NCI/ADR-RES ovarian,> 50 µM
same,GI50,OVCAR-3 ovarian,12 µM
same,TGI,OVCAR-3 ovarian,> 43.9 µM
same,GI50,OVCAR-4 ovarian,0.0146 µM
same,TGI,OVCAR-4 ovarian,0.203 µM
same,GI50,OVCAR-5 ovarian,> 50 µM
same,TGI,OVCAR-5 ovarian,> 50 µM
same,GI50,OVCAR-8 ovarian,35.9 µM
same,TGI,OVCAR-8 ovarian,> 50 µM
same,GI50,PC-3 prostate,> 28.4 µM
same,TGI,PC-3 prostate,> 50 µM
same,GI50,RPMI-8226 leukemia,2.25 µM
same,TGI,RPMI-8226 leukemia,> 36 µM
same,GI50,RXF 393 renal,0.423 µM
same,TGI,RXF 393 renal,5.24 µM
same,GI50,SF-268 CNS,41.9 µM
same,TGI,SF-268 CNS,> 50 µM
same,GI50,SF-295 CNS,> 50 µM
same,TGI,SF-295 CNS,> 50 µM
same,GI50,SF-539 CNS,0.0118 µM
same,TGI,SF-539 CNS,2.4 µM
same,GI50,SK-MEL-2 melanoma,0.174 µM
same,TGI,SK-MEL-2 melanoma,13.9 µM
same,GI50,SK-MEL-28 melanoma,> 46.6 µM
same,TGI,SK-MEL-28 melanoma,> 50 µM
same,GI50,SK-MEL-5 melanoma,4.75 µM
same,TGI,SK-MEL-5 melanoma,> 16.8 µM
same,GI50,SK-OV-3 ovarian,< 0.005 µM
same,TGI,SK-OV-3 ovarian,< 0.005 µM
same,GI50,SN12C renal,> 46.9 µM
same,TGI,SN12C renal,> 50 µM
same,GI50,SNB-19 CNS,> 50 µM
same,TGI,SNB-19 CNS,> 50 µM
same,GI50,SNB-75 CNS,1.99 µM
same,TGI,SNB-75 CNS,21.4 µM
same,GI50,SR leukemia,0.0264 µM
same,TGI,SR leukemia,> 22.1 µM
same,GI50,SW-620 colon,> 50 µM
same,TGI,SW-620 colon,> 50 µM
same,GI50,T-47D breast,29.9 µM
same,TGI,T-47D breast,> 50 µM
same,GI50,TK-10 renal,> 50 µM
same,TGI,TK-10 renal,> 50 µM
same,GI50,U251 CNS,> 50 µM
same,TGI,U251 CNS,> 50 µM
same,GI50,UACC-257 melanoma,> 50 µM
same,TGI,UACC-257 melanoma,> 50 µM
same,GI50,UACC-62 melanoma,> 50 µM
same,TGI,UACC-62 melanoma,> 50 µM
same,GI50,UO-31 renal,> 50 µM
same,TGI,UO-31 renal,> 50 µM
